From paper PMC9791655 (Journal of Medicinal Chemistry, 2022)
One block for each compound: values may come before it.

What was measured:
[1] = molecular target: T1, rat PDE9A (Rattus norvegicus, UniProt Q8QZV1); assay: PDE9A scintillation proximity assay, rat enzyme; format: biochemical
T1 sequence (Q8QZV1 1-534): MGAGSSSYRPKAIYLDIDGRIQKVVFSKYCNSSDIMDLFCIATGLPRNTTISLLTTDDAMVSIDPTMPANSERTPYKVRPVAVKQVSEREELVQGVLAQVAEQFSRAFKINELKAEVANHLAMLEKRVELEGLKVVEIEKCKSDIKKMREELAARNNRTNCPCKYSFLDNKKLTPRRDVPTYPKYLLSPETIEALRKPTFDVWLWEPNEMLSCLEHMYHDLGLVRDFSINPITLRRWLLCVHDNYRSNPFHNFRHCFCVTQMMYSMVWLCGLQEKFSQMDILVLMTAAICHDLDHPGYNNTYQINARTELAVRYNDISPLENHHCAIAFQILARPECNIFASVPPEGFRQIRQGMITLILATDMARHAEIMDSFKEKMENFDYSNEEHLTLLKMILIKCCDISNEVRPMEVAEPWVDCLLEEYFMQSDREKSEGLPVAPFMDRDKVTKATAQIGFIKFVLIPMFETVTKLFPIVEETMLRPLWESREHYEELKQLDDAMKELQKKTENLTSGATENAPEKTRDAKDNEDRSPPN

[2] = molecular target: CYP3A4 (Homo sapiens, UniProt P08684); assay: CYP inhibition assay; conditions: at 20 μM
CYP3A4, sequence (P08684 whole entry): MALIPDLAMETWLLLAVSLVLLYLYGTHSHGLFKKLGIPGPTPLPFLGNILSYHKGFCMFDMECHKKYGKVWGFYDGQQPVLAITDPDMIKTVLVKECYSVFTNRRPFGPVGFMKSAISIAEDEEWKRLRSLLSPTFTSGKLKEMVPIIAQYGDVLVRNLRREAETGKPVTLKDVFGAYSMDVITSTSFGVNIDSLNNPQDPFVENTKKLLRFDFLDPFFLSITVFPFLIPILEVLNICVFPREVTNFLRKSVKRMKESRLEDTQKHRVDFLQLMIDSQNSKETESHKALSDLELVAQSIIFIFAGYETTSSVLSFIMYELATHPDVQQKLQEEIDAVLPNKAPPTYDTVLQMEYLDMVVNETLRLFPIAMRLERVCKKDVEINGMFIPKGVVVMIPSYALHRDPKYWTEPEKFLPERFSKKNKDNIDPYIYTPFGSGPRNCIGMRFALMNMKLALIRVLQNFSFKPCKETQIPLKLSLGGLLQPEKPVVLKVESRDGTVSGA

[3] = molecular target: hERG (Homo sapiens, UniProt Q12809); assay: Cardiac ion channel inhibition
hERG, sequence (Q12809 whole entry): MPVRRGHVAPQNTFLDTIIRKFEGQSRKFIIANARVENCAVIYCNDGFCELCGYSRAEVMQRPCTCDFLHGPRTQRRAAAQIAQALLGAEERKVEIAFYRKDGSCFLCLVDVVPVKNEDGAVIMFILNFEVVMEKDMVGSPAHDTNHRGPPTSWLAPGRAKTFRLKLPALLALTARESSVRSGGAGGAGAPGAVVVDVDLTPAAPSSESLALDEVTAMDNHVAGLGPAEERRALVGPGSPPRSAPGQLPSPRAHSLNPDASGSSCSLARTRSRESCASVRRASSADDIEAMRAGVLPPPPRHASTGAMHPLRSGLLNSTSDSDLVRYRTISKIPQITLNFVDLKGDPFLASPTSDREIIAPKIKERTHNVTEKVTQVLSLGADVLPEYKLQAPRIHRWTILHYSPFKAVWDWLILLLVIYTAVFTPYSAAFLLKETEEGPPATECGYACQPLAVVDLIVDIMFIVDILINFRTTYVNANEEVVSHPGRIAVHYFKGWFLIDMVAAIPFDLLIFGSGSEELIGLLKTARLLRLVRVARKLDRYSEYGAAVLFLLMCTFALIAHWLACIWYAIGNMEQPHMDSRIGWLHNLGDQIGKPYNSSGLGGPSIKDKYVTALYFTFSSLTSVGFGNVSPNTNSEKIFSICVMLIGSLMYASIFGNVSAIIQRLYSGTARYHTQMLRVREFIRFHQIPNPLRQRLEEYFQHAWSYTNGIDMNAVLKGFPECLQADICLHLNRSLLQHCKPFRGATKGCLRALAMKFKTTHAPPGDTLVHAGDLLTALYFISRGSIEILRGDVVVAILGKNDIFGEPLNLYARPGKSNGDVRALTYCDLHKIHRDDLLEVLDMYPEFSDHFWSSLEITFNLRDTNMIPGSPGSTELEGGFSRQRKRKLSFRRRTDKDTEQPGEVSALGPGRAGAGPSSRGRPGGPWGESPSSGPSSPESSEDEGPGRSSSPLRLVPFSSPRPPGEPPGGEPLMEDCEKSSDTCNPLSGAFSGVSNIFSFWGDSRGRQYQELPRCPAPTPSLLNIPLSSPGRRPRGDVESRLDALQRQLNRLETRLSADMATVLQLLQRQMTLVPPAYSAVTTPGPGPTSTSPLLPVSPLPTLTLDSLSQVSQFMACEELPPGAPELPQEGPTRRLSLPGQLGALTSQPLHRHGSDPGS

[4] = molecular target: human PDE9A (Homo sapiens, UniProt O76083); assay: PDE9A scintillation proximity assay with 3H-cGMP; format: biochemical
human PDE9A, sequence (O76083 whole entry): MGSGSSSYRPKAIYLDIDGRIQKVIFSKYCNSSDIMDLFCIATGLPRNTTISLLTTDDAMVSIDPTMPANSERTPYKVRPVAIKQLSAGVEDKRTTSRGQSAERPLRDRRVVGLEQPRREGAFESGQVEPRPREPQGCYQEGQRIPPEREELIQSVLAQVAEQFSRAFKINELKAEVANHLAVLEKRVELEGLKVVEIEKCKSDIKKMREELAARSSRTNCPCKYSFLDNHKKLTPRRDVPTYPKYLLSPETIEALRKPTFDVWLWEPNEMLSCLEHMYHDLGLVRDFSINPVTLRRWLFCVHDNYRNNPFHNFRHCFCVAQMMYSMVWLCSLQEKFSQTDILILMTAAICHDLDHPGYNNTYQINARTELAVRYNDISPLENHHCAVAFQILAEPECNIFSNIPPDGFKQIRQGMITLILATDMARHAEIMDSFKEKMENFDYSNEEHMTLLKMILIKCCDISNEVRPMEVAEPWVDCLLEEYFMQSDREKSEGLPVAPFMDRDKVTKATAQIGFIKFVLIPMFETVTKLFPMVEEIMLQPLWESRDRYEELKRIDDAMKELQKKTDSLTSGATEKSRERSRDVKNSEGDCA

[5] = molecular target: T2, mouse PDE9A (Mus musculus, UniProt O70628); assay: PDE9A scintillation proximity assay, mouse enzyme; format: biochemical
T2 sequence (O70628 1-534): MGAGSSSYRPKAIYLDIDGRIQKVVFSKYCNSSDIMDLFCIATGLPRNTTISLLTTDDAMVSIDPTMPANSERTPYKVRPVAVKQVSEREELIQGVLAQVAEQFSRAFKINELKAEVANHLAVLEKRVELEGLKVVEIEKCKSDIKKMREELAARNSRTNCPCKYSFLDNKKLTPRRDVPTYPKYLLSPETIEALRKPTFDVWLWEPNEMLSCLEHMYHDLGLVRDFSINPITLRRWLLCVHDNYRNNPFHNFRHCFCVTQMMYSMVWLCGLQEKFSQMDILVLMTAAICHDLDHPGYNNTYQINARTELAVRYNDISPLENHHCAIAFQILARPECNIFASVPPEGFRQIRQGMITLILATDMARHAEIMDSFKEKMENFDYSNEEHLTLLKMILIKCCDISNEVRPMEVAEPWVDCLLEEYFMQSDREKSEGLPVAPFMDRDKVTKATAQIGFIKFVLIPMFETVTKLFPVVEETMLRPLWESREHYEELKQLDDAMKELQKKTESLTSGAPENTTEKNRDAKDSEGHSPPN

[6] = molecular target: Nav1.5 (Homo sapiens, UniProt Q14524); assay: Cardiac ion channel inhibition
Nav1.5, sequence (Q14524 whole entry): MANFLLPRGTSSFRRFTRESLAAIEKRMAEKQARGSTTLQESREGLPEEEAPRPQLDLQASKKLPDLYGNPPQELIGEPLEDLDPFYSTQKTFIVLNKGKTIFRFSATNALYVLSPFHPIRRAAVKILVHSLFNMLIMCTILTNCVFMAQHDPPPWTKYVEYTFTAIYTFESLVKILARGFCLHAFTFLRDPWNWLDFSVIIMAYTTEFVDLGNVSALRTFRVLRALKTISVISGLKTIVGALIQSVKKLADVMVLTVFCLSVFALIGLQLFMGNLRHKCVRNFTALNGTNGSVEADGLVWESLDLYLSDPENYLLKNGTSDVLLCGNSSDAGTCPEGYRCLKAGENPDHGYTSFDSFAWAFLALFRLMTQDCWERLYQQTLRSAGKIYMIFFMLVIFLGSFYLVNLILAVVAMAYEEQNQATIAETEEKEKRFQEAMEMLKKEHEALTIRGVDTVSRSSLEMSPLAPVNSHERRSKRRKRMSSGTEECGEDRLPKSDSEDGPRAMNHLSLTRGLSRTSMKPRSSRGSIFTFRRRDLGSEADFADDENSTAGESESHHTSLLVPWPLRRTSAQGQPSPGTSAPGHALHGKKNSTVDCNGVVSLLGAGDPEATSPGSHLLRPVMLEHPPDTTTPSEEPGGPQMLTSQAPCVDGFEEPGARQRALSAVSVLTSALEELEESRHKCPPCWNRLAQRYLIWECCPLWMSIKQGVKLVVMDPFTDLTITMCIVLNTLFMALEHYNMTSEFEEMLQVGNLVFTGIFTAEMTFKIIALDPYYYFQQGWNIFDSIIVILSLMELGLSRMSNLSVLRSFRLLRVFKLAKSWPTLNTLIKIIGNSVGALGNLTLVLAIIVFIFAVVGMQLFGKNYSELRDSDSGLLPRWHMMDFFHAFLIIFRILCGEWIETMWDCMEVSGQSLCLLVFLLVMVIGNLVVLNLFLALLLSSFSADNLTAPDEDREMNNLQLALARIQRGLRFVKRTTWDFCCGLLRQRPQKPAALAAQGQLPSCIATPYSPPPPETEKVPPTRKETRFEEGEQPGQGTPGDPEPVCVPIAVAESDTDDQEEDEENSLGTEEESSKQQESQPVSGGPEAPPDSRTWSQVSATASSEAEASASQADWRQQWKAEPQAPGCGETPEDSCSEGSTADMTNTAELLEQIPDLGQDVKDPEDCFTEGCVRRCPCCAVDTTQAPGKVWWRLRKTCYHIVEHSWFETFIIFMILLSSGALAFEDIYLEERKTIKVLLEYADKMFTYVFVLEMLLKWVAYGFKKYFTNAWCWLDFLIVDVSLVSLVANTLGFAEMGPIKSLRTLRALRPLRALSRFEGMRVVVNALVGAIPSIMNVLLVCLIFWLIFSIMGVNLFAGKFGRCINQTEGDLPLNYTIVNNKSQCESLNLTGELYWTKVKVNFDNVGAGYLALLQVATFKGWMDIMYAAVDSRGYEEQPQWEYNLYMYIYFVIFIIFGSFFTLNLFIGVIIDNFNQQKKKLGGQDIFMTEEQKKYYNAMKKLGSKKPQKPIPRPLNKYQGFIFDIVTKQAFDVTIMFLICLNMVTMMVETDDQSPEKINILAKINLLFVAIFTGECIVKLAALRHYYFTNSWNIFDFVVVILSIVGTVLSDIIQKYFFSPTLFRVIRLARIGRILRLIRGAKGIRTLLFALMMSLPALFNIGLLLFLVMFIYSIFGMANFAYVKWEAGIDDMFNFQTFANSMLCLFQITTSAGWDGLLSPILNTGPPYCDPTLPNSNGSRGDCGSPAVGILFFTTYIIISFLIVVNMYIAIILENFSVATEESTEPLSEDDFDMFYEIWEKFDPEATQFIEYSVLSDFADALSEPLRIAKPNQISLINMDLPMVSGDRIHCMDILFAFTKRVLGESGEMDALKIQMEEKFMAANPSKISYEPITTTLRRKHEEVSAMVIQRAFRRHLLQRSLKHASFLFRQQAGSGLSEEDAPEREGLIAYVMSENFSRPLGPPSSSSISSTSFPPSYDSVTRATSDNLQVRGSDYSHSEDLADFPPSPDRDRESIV

[7] = Radiotelemetric measurement of blood pressure in rats; conditions: telemetric rats, within 24 h
[8] = system: PDE2A; assay: PDE selectivity profiling; format: biochemical, human
[9] = system: urinary cGMP; assay: Urinary cGMP assay in rats; format: in vivo, rat; conditions: 40 mg/kg
[10] = system: PDE10A; assay: PDE selectivity profiling; format: biochemical, human
[11] = molecular target: CYP2D6 (Homo sapiens, UniProt P10635); assay: CYP inhibition assay; conditions: at 20 μM
CYP2D6, sequence (P10635 whole entry): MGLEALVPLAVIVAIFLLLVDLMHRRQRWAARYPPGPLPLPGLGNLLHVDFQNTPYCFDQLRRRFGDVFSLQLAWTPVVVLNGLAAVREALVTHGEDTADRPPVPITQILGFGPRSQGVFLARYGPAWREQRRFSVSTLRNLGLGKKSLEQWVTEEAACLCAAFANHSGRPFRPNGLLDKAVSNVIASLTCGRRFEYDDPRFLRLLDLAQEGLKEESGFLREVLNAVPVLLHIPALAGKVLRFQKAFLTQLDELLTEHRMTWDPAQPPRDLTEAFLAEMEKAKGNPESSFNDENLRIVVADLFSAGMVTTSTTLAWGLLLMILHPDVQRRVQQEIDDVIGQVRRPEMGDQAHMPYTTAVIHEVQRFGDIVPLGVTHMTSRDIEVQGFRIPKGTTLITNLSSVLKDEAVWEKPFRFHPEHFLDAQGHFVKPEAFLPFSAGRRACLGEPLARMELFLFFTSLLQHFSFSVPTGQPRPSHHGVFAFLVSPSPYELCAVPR

[12] = system: PDE3B; assay: PDE selectivity profiling; format: biochemical, human
[13] = Pharmacokinetics in dogs; format: in vivo; conditions: dog, blood, iv, 0.3 mg/kg
[14] = Metabolite identification assay, hepatocyte incubation; format: in vitro ADME, human
[15] = system: CYP1A2; format: in vitro ADME; conditions: human hepatocytes
[16] = system: 75 off-targets (Panlabs); assay: Panlabs off-target profile
[17] = molecular target: T3, CYP2C8 (Homo sapiens, UniProt P10632); assay: CYP inhibition assay; conditions: at 20 μM
T3 sequence (P10632 1-490): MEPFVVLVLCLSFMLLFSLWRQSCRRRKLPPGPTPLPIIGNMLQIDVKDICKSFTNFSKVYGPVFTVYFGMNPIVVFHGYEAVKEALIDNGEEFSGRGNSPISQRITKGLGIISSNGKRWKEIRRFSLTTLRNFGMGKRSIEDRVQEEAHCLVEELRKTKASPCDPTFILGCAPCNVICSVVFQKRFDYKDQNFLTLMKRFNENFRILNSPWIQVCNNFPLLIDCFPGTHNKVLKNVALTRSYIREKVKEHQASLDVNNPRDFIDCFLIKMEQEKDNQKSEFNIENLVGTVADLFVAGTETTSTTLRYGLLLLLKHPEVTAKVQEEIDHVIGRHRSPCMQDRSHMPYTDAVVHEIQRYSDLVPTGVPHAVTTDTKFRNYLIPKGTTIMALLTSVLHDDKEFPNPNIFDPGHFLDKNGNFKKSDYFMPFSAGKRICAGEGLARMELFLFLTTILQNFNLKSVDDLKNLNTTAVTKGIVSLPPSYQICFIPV

[18] = Metabolite identification assay, hepatocyte incubation; format: in vitro ADME, rat
[19] = Ames test
[20] = system: PDE7B; assay: PDE selectivity profiling; format: biochemical, human
[21] = molecular target: T4, CYP1A2 (Homo sapiens, UniProt P05177); conditions: at 20 μM
T4 sequence (P05177 1-516): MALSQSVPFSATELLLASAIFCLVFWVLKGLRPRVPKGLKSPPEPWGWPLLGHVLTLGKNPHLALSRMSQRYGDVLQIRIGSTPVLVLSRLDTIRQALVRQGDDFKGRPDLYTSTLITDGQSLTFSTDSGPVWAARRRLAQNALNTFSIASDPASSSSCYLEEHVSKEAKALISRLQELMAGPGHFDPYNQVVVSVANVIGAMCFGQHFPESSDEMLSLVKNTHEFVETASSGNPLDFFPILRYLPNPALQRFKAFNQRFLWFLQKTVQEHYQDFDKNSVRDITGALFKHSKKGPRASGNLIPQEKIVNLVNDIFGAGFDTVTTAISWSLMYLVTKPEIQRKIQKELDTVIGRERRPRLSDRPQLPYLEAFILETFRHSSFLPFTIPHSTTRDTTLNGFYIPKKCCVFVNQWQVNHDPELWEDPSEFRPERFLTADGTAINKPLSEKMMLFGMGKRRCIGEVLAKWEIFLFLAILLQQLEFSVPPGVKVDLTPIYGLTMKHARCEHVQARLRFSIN

[22] = system: CYP3A4 mRNA; assay: CYP induction potential in human hepatocytes; format: in vitro ADME
[23] = Transverse aortic constriction; format: in vivo; conditions: mouse TAC
[24] = twice daily oral 10 or 50 mg/kg
[25] = 10 mg/kg twice daily for 5 weeks

Structure (SMILES): CCCC1CNCc2c1[nH]c(=O)c(C#N)c2N1CCC2(CC1)CC2.Cl (single isomer, unassigned; ent-4) [Compound 30, ent-4-(6-Azaspiro[2.5]octan-6-yl)-2-oxo-8-propyl-1,2,5,6,7,8-hexahydro-1,6-naphthyridine-3-carbonitrile Hydrochloride]
IC50 [1]: 42 nM | inhibition of CYP3A4 [2]: No inhibition | inhibition of cardiac ion channel hERG [3]: clean profile | BEI binding efficiency index −log (IC50)/MW × 1000 [4]: 23.9 | IC50 [5]: 34 nM | inhibition of cardiac ion channel Nav1.5 [6]: clean profile | effects on blood pressure ([7]; once daily oral 5 or 40 mg/kg): no significant effects | effects on heart rate ([7]; once daily oral 5 or 40 mg/kg): no significant effects | PDE2A selectivity factor (PDE#-IC50/PDE9A-IC50) [8]: >650x | urinary cGMP versus vehicle [9]: nonsignificant trend toward higher cGMP levels | PDE10A selectivity factor (PDE#-IC50/PDE9A-IC50) [10]: >650x | inhibition of CYP2D6 [11]: No inhibition | PDE3B selectivity factor (PDE#-IC50/PDE9A-IC50) [12]: >650x | clearance [13]: 15 mL/min/kg | reactive metabolites after incubation with human hepatocytes [14]: no reactive metabolites were formed | degradation in the presence of human hepatocytes ([14]; after 4 h of incubation): almost no degradation | CYP1A2 induction [15]: no induction | inhibition of 75 off-targets (Panlabs) [16]: clean profile | inhibition of CYP2C8 [17]: No inhibition | reactive metabolites after incubation with rat hepatocytes [18]: no reactive metabolites were formed | genotoxicity in Ames test [19]: No genotoxicity | PDE7B selectivity factor (PDE#-IC50/PDE9A-IC50) [20]: >650x | inhibition of CYP1A2 [21]: No inhibition | concentrations at which CYP3A4 mRNA was induced [22]: above 9.2 μM

clearance [13]: 8.33 mL/min/kg
Structure (SMILES): C[C@@H]1CN(Cc2ncccn2)C[C@H]1c1nc2c(cnn2C2CCOCC2)c(=O)[nH]1 [PF-04447943, 6-[(3S,4S)-4-Methyl-1-(pyrimidin-2-ylmethyl)pyrrolidin-3-yl]-1-(tetrahydro-2H-pyran-4-yl)-1,5-dihydro-4H-pyrazolo[3,4-d]pyrimidin-4-one, reference compound]
effects on blood pressure [7, 24]: no significant effects | effects on heart rate [7, 24]: no significant effects | minimal diastolic left ventricular pressure (LVPmin) ([23]; 10 mg/kg bid for five weeks, 10 mg/kg): reduction | heart function (LVEDP, Tau) [23, 25]: trend for improvement | hypertrophy of the left atrium [23, 25]: statistically significant reduction
